Results: patent US6934639B1, “Methods for designing agents that interact with MMP-13” (Wyeth, priority 2000, dated 2005)

How the values were obtained:
Format in all cases: biochemical
MMP-1 = target: T1, MMP-1 (Homo sapiens, UniProt P03956); experiment: MMP-1 enzyme inhibition (IC50)
T1 sequence (P03956 100-469): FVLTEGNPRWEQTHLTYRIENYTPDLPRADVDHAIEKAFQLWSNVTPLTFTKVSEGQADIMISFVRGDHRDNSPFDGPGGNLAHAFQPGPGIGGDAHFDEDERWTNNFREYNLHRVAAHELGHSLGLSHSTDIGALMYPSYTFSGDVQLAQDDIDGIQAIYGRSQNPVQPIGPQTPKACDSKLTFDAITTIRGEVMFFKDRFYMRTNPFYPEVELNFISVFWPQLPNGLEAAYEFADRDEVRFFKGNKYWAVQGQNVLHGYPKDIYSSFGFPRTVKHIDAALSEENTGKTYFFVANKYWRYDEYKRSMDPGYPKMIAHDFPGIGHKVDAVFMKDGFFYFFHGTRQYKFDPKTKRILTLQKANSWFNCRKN

MMP-13 = MMP-13 (Homo sapiens, UniProt P45452); experiment: MMP-13 enzyme inhibition (IC50)
MMP-9 = MMP-9 (Homo sapiens, UniProt P14780); experiment: MMP-9 enzyme inhibition (IC50)
Sequence of MMP-9 (P14780 94-707, species assumed): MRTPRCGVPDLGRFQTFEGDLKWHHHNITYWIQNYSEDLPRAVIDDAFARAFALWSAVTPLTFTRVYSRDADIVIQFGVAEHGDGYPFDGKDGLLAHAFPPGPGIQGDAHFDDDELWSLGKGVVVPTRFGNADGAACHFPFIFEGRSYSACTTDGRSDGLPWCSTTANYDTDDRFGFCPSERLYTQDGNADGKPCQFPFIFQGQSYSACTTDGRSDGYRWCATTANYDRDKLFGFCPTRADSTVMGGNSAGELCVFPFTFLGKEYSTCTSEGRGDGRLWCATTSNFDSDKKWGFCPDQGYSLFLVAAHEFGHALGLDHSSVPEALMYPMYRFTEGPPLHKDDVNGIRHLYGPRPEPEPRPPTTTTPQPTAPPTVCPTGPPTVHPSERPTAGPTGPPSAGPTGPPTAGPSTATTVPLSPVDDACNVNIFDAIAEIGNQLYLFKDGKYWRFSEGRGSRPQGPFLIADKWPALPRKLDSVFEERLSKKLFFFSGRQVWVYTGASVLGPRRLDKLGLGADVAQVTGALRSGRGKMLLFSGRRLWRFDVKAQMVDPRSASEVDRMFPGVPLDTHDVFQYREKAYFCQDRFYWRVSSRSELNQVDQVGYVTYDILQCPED

TACE = TACE (Homo sapiens, UniProt P78536); experiment: TACE enzyme inhibition (IC50)
Sequence of TACE (P78536 215-824): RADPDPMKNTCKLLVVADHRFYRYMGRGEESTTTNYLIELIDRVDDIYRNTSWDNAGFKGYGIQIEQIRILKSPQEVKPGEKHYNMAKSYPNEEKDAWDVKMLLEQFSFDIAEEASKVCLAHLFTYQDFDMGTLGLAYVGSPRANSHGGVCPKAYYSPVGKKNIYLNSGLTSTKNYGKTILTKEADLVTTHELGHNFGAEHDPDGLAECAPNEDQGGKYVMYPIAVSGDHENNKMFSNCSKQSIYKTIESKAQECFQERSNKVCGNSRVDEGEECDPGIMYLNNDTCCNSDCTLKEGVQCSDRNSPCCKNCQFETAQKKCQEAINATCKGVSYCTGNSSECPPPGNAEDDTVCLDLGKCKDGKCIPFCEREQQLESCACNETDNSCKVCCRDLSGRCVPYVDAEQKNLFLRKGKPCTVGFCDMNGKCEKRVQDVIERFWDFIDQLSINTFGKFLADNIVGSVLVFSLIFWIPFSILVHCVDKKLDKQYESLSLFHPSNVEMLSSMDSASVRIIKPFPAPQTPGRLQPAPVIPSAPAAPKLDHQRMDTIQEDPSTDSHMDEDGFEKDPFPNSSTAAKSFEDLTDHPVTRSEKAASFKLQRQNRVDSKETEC

Compound	IC50 (MMP-9) [nM]	IC50 (MMP-13) [nM]	IC50 (MMP-1) [nM]	IC50 (TACE) [nM]	also measured
COc1ccc(S(=O)(=O)N(Cc2cccnc2)[C@@H](C(=O)NO)C(C)C)cc1 [CGS-27023A, reference compound]					potency as inhibitor of MMP-1 (MMP-1): low nanomolar
COc1ccc(S(=O)(=O)N(Cc2cccnc2)c2c(C)cccc2C(=O)NO)cc1 [Compound A, N-Hydroxy-2-[(4-methoxy-benzenesulfonyl)-pyridin-3-ylmethyl-amino]-3-methyl-benzamide]					potency as inhibitor of MMP-13 (MMP-13): low nanomolar
Cc1cc(C)c(N(Cc2ccccc2)S(=O)(=O)c2ccc(OCCc3ccccc3)cc2)c(C(=O)NO)c1 [Compound C, 2-[Benzyl-(4-phenethyloxy-benzenesulfonyl)-amino]-N-hydroxy-3,5-dimethyl-benzamide]	46	75	750		
COc1ccc(S(=O)(=O)N(Cc2ccccc2)c2c(C)cc(C)cc2C(=O)NO)cc1 [Compound D, 2-[Benzyl-(4-methoxy-benzenesulfonyl)-amino]-N-hydroxy-3,5-dimethyl-benzamide]				240	
Cc1cc(C)c(N(Cc2ccccc2)S(=O)(=O)c2ccc(OCCNC(=O)c3cc4ccccc4o3)cc2)c(C(=O)NO)c1 [Compound E, Benzofuran-2-carboxylic acid (2-{4-[benzyl-(2-hydroxycarbamoyl-4,6-dimethyl-phenyl)-sulfamoyl]-phenoxy}-ethyl)-amide]	945	17			
Cc1cc(C)c(N(Cc2ccccc2)S(=O)(=O)c2ccc(OCCCc3ccccc3)cc2)c(C(=O)NO)c1 [Compound F]	71	301	1020	664	S-TACE: selectivity, ratio of TACE IC50 with MMP-13 (TACE; TACE IC50 / MMP-13 IC50): 2.2 x; S-9: selectivity, ratio of MMP-9 IC50 with MMP-13 (MMP-9; MMP-9 IC50 / MMP-13 IC50): 0.2 x; S-1: selectivity, ratio of MMP-1 IC50 with MMP-13 (MMP-1; MMP-1 IC50 / MMP-13 IC50): 3.4 x
